# Assay results taken from article PMC2783949 (Bioorganic & medicinal chemistry, 2009).
# Entries after “also recorded” stand apart in the source; their conditions may differ.
# Experiments:
# [1] = molecular target: catalytic subunit of E. coli ATCase (Escherichia coli, UniProt P0A786); conditions: for mode of inhibition: relative to carbamyl phosphate; for Inhibition Constant (Ki): pH 8.3
# [2] = Oxidation of H-phosphinate 2 into PALA, 31P-NMR monitoring; type: physicochemical; conditions: neutralized compound, over a period of two weeks
# solid tumors = conditions: mice; cited from earlier work
# murine leukemias = conditions: cited from earlier work
# Chain of catalytic subunit of E. coli ATCase (P0A786 2-311): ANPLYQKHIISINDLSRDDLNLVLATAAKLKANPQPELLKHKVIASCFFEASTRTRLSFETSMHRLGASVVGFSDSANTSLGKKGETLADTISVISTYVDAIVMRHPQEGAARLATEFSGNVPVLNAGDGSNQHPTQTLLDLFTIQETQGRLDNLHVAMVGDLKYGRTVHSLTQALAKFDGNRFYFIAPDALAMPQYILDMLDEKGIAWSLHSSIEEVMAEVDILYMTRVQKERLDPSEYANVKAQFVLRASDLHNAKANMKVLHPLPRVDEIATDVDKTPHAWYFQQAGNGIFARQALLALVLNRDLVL
SMILES,inhibition of ATCase (in words) [1],further results
O=C(O)C[C@H](NC(=O)CC(C(=O)O)C(=O)O)C(=O)O [Compound 38],"none of the carboxylates 38, 40, and 42 displayed any significant inhibition",–
O=C(O)C[C@H](NC(=O)CP(=O)(O)CCO)C(=O)O [Compound 22],significant inhibitory activity,mode of inhibition [1]: uncompetitive
"O=C(O)C[C@@H](C(=O)O)N1CP(=O)(O)CC1=O [Compound 19, 2-(3-Hydroxy-3,5-dioxo-3l5-[1,3]azaphospholidin-1-yl)-succinic acid]",inactive,Inhibition Constant (Ki) [1]: inactive
O=C(O)C[C@@H](C(=O)O)N1CCP(=O)(O)CC1 [Compound 14],totally inactive,Inhibition Constant (Ki) [1]: inactive
NC(=O)OP(=O)(O)O [carbamyl phosphate],–,Km ([1]; substrate of ATCase): 28 µM
O=C(O)CC(=O)N[C@@H](CC(=O)O)C(=O)O [Compound 40],"none of the carboxylates 38, 40, and 42 displayed any significant inhibition; also recorded: inactive",–
"O=C(O)C[C@@H](C(=O)O)N1CCP(=O)(O)CC1=O [Compound 27, 2-(4-Hydroxy-2,4-dioxo-4λ[5]-[1,4]azaphosphinan-1-yl)-succinic acid]",significant inhibition; also recorded: micromolar-level inhibitor,Km(CP)/Ki ([1]; Km of carbamyl phosphate over Ki of inhibitor): 28
O=C(O)C[C@H](NC(=O)C[PH](=O)CO)C(=O)O (some centres unmarked) [Compound 3],submicromolar inhibitors,–
O=C(O)CCC(=O)N[C@@H](CC(=O)O)C(=O)O [Compound 42],"none of the carboxylates 38, 40, and 42 displayed any significant inhibition",–
O=C(O)C[C@H](NC(=O)CP(=O)(O)CC(=O)O)C(=O)O [Compound 24],–,mode of inhibition [1]: competitive inhibitor
O=C(O)C[C@H](NC(=O)C[PH](=O)O)C(=O)O [Compound 2],good inhibitor; also recorded: submicromolar inhibitors,oxidation of 2 into PALA [2]: could not be detected
"O=C(O)C[C@H](NC(=O)CP(=O)(O)O)C(=O)O [Compound 1, N-phosphonacetyl-L-aspartate]",–,effect on solid tumors (solid tumors): eradicated solid tumors in mice; effect on murine leukemias (murine leukemias): murine leukemias were resistant
"O=C(O)C[C@H](NC(=O)OCP(=O)(O)O)C(=O)O [Compound 32, 2-Phosphonomethyl-oxycarbonylamino-succinic acid]",does not inhibit ATCase at all,Inhibition Constant (Ki) [1]: inactive
